From patent US4338122A, “Biocidal 2-aryl-1,3-cyclopentanedione compounds and alkali metal and ammonium salts thereof” (Union Carbide Corporation, priority 1980, dated 1982)

Tests used:
[1] = system: Red root pigweed (Amaranthus); assay: Preliminary herbicide seed germination test (pre-emergent), Amaranthus; type: in vivo, Amaranthus retroflexus; set-up: key: 5: no seedling emerged; 4: few seedlings emerged and/or very severe stunting; 3: moderate reduction in stand and/or moderate stunting; 2: very slight reduction in stand and/or slight stunting; 1: no injury; seedlings appear no different with respect to stand or growth than untreated controls; conditions: ten to twelve days after application
Protocol: (§1) Suspensions of the test compounds were prepared by dissolving one gram of compound in 50 milliliters of acetone in which had been dissolved 0.1 gram (10 percent of the weight of compound) of an alkylphenoxyethoxyethanol surfactant, as an emulsifying or dispersing agent. The resulting solution was mixed into 160 milliliters of water to give roughly 200 milliliters of a suspension containing the compound in finely divided form. The thus prepared stock suspension contained 0.5 percent by weight of compound. The test concentrations employed in the tests described herein below were obtained by diluting the stock suspension with water. The test procedures were as follows:
(§2) The following seeds were used in this test:
Red root pigweed--Amaranthus retroflexus
(§3) Two soil-seed mixtures were prepared as follows:
(§4) Each of the above mixtures was rolled separately in 5 gallon containers for approximately one-half hour on ball mill to insure uniform mixing of seeds and soil. For each compound four 3-inch pots were filled with soil to within 11/2 inches of top of pots. To two of these pots were added 70 cc. of Mixture I. To the remaining 2 pots were added 70 cc. of Mixture II. The seed-soil mixture was tamped firmly, and the pots were removed to the green-house and watered lightly. About 2 hours after planting, 25 milliliters of the test formulation were added to one pot containing Mixture I and one pot containing Mixture II. An equal volume of a water solution containing acetone and an emulsifier in the same concentration as the herbicidal mixture but without the candidate herbicide was also added to each of the soil-seed mixtures. These pots are used as check or control units. The test compounds were formulated by diluting the stock suspension with water to obtain the desired concentration of the compound in parts per million of the final formulation. Each compound was tested at the same concentration. […] Ratings were made according to the following designations:
(§5) Tests were conducted in accordance with the procedures given at pages 32 to 37 supra. The results are expressed in the same manner as used in Table I, except with respect to miticidal activity. For mite adult and mite egg comparison purposes, results are given in parts per million (ppm) required for a 50 percent kill of mites or eggs, respectively.

Mustard = assay: Preliminary herbicide seed germination test (pre-emergent), mustard; type: in vivo, Brassica pincea var. foliosa (Florida broadleaf); set-up: key: 5: no seedling emerged; 4: few seedlings emerged and/or very severe stunting; 3: moderate reduction in stand and/or moderate stunting; 2: very slight reduction in stand and/or slight stunting; 1: no injury; seedlings appear no different with respect to stand or growth than untreated controls; conditions: ten to twelve days after application
Protocol: as §1, §2
Mustard--Brassica pincea var. foliosa (Florida broadleaf)
as §3
as §4, with “designations: […]” for “designations:”

Cotton = assay: Post-emergent herbicidal test, cotton; type: in vivo; set-up: key: 1: no perceptible injury; 2: intermediate degrees of injury based upon the number and extent to which leaves were injured; 3: intermediate degrees of injury based upon the number and extent to which leaves were injured; 4: intermediate degrees of injury based upon the number and extent to which leaves were injured; 5: the plant was dead; conditions: 2500 parts per million, after ten days
Protocol: as §1
(§6) Experiments were also conducted to determine the phytotoxicity of representative compositions with respect to healthy fresh plants. Solutions of the compounds were prepared as described above to provide a concentration of 2500 parts per million of the test compound. The test plants were sprayed in accordance with the procedure described above for the Mite Foliage Spray Test so as to deliver approximately 100 milliliters of test solutions to the leaves of each plant tested. The sprayed plants and controls were set aside for approximately one hour to allow the solutions to dry and were then placed in the greenhouse. After ten days the plants were visually inspected to determine the extent of foliage injury. A rating of 1 indicates no perceptible injury; 5 indicates the plant was dead and ratings of 2, 3 and 4 indicate intermediate degrees of injury based upon the number and extent to which leaves were injured.
as §5

Corn = assay: Post-emergent herbicidal test, corn; type: in vivo; set-up: key: 1: no perceptible injury; 2: intermediate degrees of injury based upon the number and extent to which leaves were injured; 3: intermediate degrees of injury based upon the number and extent to which leaves were injured; 4: intermediate degrees of injury based upon the number and extent to which leaves were injured; 5: the plant was dead; conditions: 2500 parts per million, after ten days
Protocol: as §1, §6, §5

Soybean = assay: Post-emergent herbicidal test, soybean; type: in vivo; set-up: key: 1: no perceptible injury; 2: intermediate degrees of injury based upon the number and extent to which leaves were injured; 3: intermediate degrees of injury based upon the number and extent to which leaves were injured; 4: intermediate degrees of injury based upon the number and extent to which leaves were injured; 5: the plant was dead; conditions: 2500 parts per million, after ten days
Protocol: as §1, §6, §5

Bean = assay: Post-emergent herbicidal test, bean; type: in vivo; set-up: key: 1: no perceptible injury; 2: intermediate degrees of injury based upon the number and extent to which leaves were injured; 3: intermediate degrees of injury based upon the number and extent to which leaves were injured; 4: intermediate degrees of injury based upon the number and extent to which leaves were injured; 5: the plant was dead; conditions: 2500 parts per million, after ten days
Protocol: as §1, §6, §5

Perennial rye grass = assay: Preliminary herbicide seed germination test (pre-emergent), rye grass; type: in vivo, Solium perenne; set-up: key: 5: no seedling emerged; 4: few seedlings emerged and/or very severe stunting; 3: moderate reduction in stand and/or moderate stunting; 2: very slight reduction in stand and/or slight stunting; 1: no injury; seedlings appear no different with respect to stand or growth than untreated controls; conditions: ten to twelve days after application
Protocol: as §1, §2
Perennial rye grass--Solium perenne
as §3, §4, §5

Cc1ccccc1C1C(=O)CCC1=O [CH3 H H H H, 2-(2'-methylphenyl)-1,3-cyclopentanedione]
Pre-emergent Herbicidal, Amaranthus (injury rating) ([1]; Table I): 1 | Pre-emergent Herbicidal, Amaranthus (injury rating) ([1]; Table II): 1 | Pre-emergent Herbicidal, Mustard (injury rating) (Mustard; Table I): 1 | Pre-emergent Herbicidal, Mustard (injury rating) (Mustard; Table II): 1 | Post-Emergent Herbicidal, Cotton (injury rating) (Cotton; Table I): 3 | Post-Emergent Herbicidal, Cotton (injury rating) (Cotton; Table II): 3 | Post-Emergent Herbicidal, Corn (injury rating) (Corn; Table I): 3 | Post-Emergent Herbicidal, Corn (injury rating) (Corn; Table II): 3 | Post-Emergent Herbicidal, Soybean (injury rating) (Soybean; Table I): 1 | Post-Emergent Herbicidal, Soybean (injury rating) (Soybean; Table II): 1 | Post-Emergent Herbicidal, Bean (injury rating) (Bean; Table I): 3 | Post-Emergent Herbicidal, Bean (injury rating) (Bean; Table II): 3 | Pre-emergent Herbicidal, Rye (injury rating) (Perennial rye grass; Table I): 5 | Pre-emergent Herbicidal, Rye (injury rating) (Perennial rye grass; Table II): 5
